From patent US12466803B2 (priority 2021, dated 2025)

Test system: phospho (S293) BCKDHA in human skeletal myocytes
Assay: Phospho BCKDHA Alpha Surefire Cell Assay
Type: cell-based
Conditions: Homo sapiens, 1 h, 60 minutes with compound, geometric mean

O=C(O)c1sc2cc(Cl)ccc2c1-c1ccc(Cl)c(F)c1 [Example 20, 6-Chloro-3-(4-chloro-3-fluorophenyl)-1-benzothiophene-2-carboxylic acid]
IC50: 2400 nM

O=C(O)c1sc2cc(F)ccc2c1-c1cc(F)c(F)c(O)c1F [Example 22, 6-Fluoro-3-(2,4,5-trifluoro-3-hydroxyphenyl)-1-benzothiophene-2-carboxylic acid]
IC50: 23000 nM

O=C(O)c1sc2cc(F)ccc2c1-c1cc(F)c(F)c(Cl)c1F [Example 24, 3-(3-Chloro-2,4,5-trifluorophenyl)-6-fluoro-1-benzothiophene-2-carboxylic acid]
IC50: 400 nM

COc1cccc(-c2c(C(=O)O)sc3ccccc23)c1F [Example 26, 3-(2-fluoro-3-methoxyphenyl)-1-benzothiophene-2-carboxylic acid]
IC50: 5500 nM

O=C(O)c1sc2cc(F)ccc2c1-c1ccc2c(c1)CCCO2 [Example 28, 3-(3,4-dihydro-2H-1-benzopyran-6-yl)-6-fluoro-1-benzothiophene-2-carboxylic acid]
IC50: 4900 nM

COc1cccc(-c2c(C(=O)O)sc3cc(Cl)ccc23)c1F [Example 30, 6-chloro-3-(2-fluoro-3-methoxyphenyl)-1-benzothiophene-2-carboxylic acid]
IC50: 2600 nM

O=C(O)c1sc2cc(F)ccc2c1-c1ccc2c(c1F)CCCO2 [Example 32, 6-fluoro-3-(5-fluoro-3,4-dihydro-2H-1-benzopyran-6-yl)-1-benzothiophene-2-carboxylic acid]
IC50: 1900 nM

O=C(O)c1sc2cc(Cl)ccc2c1-c1ccc(F)c(F)c1F [Example 33, 6-chloro-3-(2,3,4-trifluorophenyl)-1-benzothiophene-2-carboxylic acid]
IC50: 1100 nM

CCOc1ccc(-c2c(C(=O)O)sc3cc(F)ccc23)c(F)c1F [Example 34, 3-(4-ethoxy-2,3-difluorophenyl)-6-fluoro-1-benzothiophene-2-carboxylic acid]
IC50: > 60000 nM

COc1ccc(-c2c(C(=O)O)sc3cc(F)ccc23)c(F)c1F [Example 35, 3-(2,3-difluoro-4-methoxyphenyl)-6-fluoro-1-benzothiophene-2-carboxylic acid]
IC50: > 60000 nM

COc1cc(-c2c(C(=O)O)sc3cc(F)ccc23)c(F)cc1Cl [Example 36, 3-(4-chloro-2-fluoro-5-methoxyphenyl)-6-fluoro-1-benzothiophene-2-carboxylic acid]
IC50: 3000 nM

O=C(O)c1sc2cc(F)ccc2c1-c1ccc2c(c1)CCCC2 [Example 37, 6-fluoro-3-(5,6,7,8-tetrahydronaphthalen-2-yl)-1-benzothiophene-2-carboxylic acid]
IC50: 25000 nM

Cc1c(Cl)ccc(-c2c(C(=O)O)sc3cc(F)ccc23)c1F [Example 38, 3-(4-chloro-2-fluoro-3-methylphenyl)-6-fluoro-1-benzothiophene-2-carboxylic acid]
IC50: 460 nM

CCCOc1ccc(-c2c(C(=O)O)sc3cc(F)ccc23)c(F)c1F [Example 39, 3-(2,3-difluoro-4-propoxyphenyl)-6-fluoro-1-benzothiophene-2-carboxylic acid]
IC50: > 60000 nM

CC1COc2cc(-c3c(C(=O)O)sc4cc(F)ccc34)ccc2C1 (stereo not drawn) [Example 40, 6-fluoro-3-(3-methyl-3,4-dihydro-2H-1-benzopyran-7-yl)-1-benzothiophene-2-carboxylic acid]
IC50: > 54000 nM

O=C(O)c1sc2cc(F)ccc2c1-c1c(F)cccc1F [Example 48, 3-(2,6-difluorophenyl)-6-fluoro-1-benzothiophene-2-carboxylic acid]
IC50: 12000 nM

COc1c(C#N)ccc(-c2c(C(=O)O)sc3cc(F)ccc23)c1F [Example 49, 3-(4-cyano-2-fluoro-3-methoxyphenyl)-6-fluoro-1-benzothiophene-2-carboxylic acid]
IC50: 7500 nM

CCOc1c(Cl)ccc(-c2c(C(=O)O)sc3cc(F)ccc23)c1F [Example 51, 3-(4-chloro-3-ethoxy-2-fluorophenyl)-6-fluoro-1-benzothiophene-2-carboxylic acid]
IC50: 12000 nM

COc1c(Cl)cc(F)c(-c2c(C(=O)O)sc3cc(F)ccc23)c1F [Example 52, 3-(4-chloro-2,6-difluoro-3-methoxyphenyl)-6-fluoro-1-benzothiophene-2-carboxylic acid]
IC50: 64 nM

COCc1c(F)c(F)cc(-c2c(C(=O)O)sc3cc(F)ccc23)c1F [Example 53, 6-fluoro-3-[2,4,5-trifluoro-3-(methoxymethyl)phenyl]-1-benzothiophene-2-carboxylic acid]
IC50: 4200 nM

COc1ccc(F)c(-c2c(C(=O)O)sc3cc(F)ccc23)c1F [Example 55, 3-(2,6-difluoro-3-methoxyphenyl)-6-fluoro-1-benzothiophene-2-carboxylic acid]
IC50: 1100 nM

O=C(O)c1sc2cc(F)ccc2c1-c1c(F)cc(Cl)cc1F [Example 59, 3-(4-chloro-2,6-difluorophenyl)-6-fluoro-1-benzothiophene-2-carboxylic acid]
IC50: > 60000 nM

O=C(O)c1sc2cc(F)ccc2c1-c1c(F)cc(F)cc1F [Example 60, 6-fluoro-3-(2,4,6-trifluorophenyl)-1-benzothiophene-2-carboxylic acid]
IC50: 2900 nM

COc1ncc(F)c(-c2c(C(=O)O)sc3cc(F)ccc23)c1F [Example 61, 3-(3,5-difluoro-2-methoxypyridin-4-yl)-6-fluoro-1-benzothiophene-2-carboxylic acid]
IC50: 2100 nM

COc1c(F)cc(F)c(-c2c(C(=O)O)sc3cc(Cl)ccc23)c1F [Example 63, 6-chloro-3-(2,4,6-trifluoro-3-methoxyphenyl)-1-benzothiophene-2-carboxylic acid]
IC50: 71 nM

O=C(O)c1sc2cc(F)ccc2c1-c1ccc(Cl)cc1F [Example 64, 3-(4-chloro-2-fluorophenyl)-6-fluoro-1-benzothiophene-2-carboxylic acid]
IC50: 11000 nM

O=C(O)c1sc2cc(F)ccc2c1-c1ccc(Cl)c(F)c1F [Example 65, 3-(4-chloro-2,3-difluorophenyl)-6-fluoro-1-benzothiophene-2-carboxylic acid]
IC50: 1800 nM

O=C(O)c1sc2cc(F)ccc2c1-c1ccc2c(c1F)OCCC2 [Example 66, 6-fluoro-3-(8-fluoro-3,4-dihydro-2H-1-benzopyran-7-yl)-1-benzothiophene-2-carboxylic acid]
IC50: 3800 nM

CC1CCc2cc(-c3c(C(=O)O)sc4cc(F)ccc34)c(F)cc2O1 (stereo not drawn) [Example 67, 6-fluoro-3-(7-fluoro-2-methyl-3,4-dihydro-2H-1-benzopyran-6-yl)-1-benzothiophene-2-carboxylic acid]
IC50: 5100 nM

CC1CCc2cc(-c3c(C(=O)O)sc4cc(F)ccc34)cc(F)c2O1 (stereo not drawn) [Example 71, 6-fluoro-3-(8-fluoro-2-methyl-3,4-dihydro-2H-1-benzopyran-6-yl)-1-benzothiophene-2-carboxylic acid]
IC50: 4500 nM

O=C(O)c1sc2cc(Cl)ccc2c1-c1ccccc1 [Example 74, 6-chloro-3-phenyl-1-benzothiophene-2-carboxylic acid]
IC50: > 60000 nM

COc1c(C#N)cc(F)c(-c2c(C(=O)O)sc3cc(F)ccc23)c1F [Example 75, 3-(4-cyano-2,6-difluoro-3-methoxyphenyl)-6-fluoro-1-benzothiophene-2-carboxylic acid]
IC50: > 60000 nM

CC1CCc2c(ccc(-c3c(C(=O)O)sc4cc(F)ccc34)c2F)O1 (stereo not drawn) [Example 76, 6-fluoro-3-(5-fluoro-2-methyl-3,4-dihydro-2H-1-benzopyran-6-yl)-1-benzothiophene-2-carboxylic acid]
IC50: 3600 nM

COc1c(Cl)ccc(-c2c(C(=O)O)sc3cc(F)ccc23)c1F [Example 79, 3-(4-chloro-2-fluoro-3-methoxyphenyl)-6-fluoro-1-benzothiophene-2-carboxylic acid]
IC50: 230 nM

CC1CCc2c(cc(F)c(-c3c(C(=O)O)sc4cc(Cl)ccc34)c2F)O1 (stereo not drawn) [Example 80, 6-chloro-3-(5,7-difluoro-2-methyl-3,4-dihydro-2H-1-benzopyran-6-yl)-1-benzothiophene-2-carboxylic acid]
IC50: 4000 nM

CCc1c(F)ccc(-c2c(C(=O)O)sc3cc(F)ccc23)c1F [Example 86, 3-(3-ethyl-2,4-difluorophenyl)-6-fluoro-1-benzothiophene-2-carboxylic acid]
IC50: 310 nM

CCOc1ccc(F)c(-c2c(C(=O)O)sc3cc(F)ccc23)c1F [Example 93, 3-(3-ethoxy-2,6-difluorophenyl)-6-fluoro-1-benzothiophene-2-carboxylic acid]
IC50: 17000 nM

Cc1cc(-c2c(C(=O)O)sc3cc(F)ccc23)c(F)cc1F [Example 95, 3-(2,4-difluoro-5-methylphenyl)-6-fluoro-1-benzothiophene-2-carboxylic acid]
IC50: 1000 nM

O=C(O)c1sc2cc(F)ccc2c1-c1c(F)ccc(Cl)c1F [Example 97, 3-(3-chloro-2,6-difluorophenyl)-6-fluoro-1-benzothiophene-2-carboxylic acid]
IC50: 540 nM

Cc1cc(-c2c(C(=O)O)sc3cc(F)ccc23)c(F)cc1Cl [Example 106, 3-(4-chloro-2-fluoro-5-methylphenyl)-6-fluoro-1-benzothiophene-2-carboxylic acid]
IC50: 480 nM

O=C(O)c1sc2cc(F)ccc2c1-c1c(F)cncc1F [Example 107, ammonium 3-(3,5-difluoropyridin-4-yl)-6-fluoro-1-benzothiophene-2-carboxylate]
IC50: 8600 nM

O=C(O)c1sc2cc(F)ccc2c1-c1cc(Cl)c(F)cc1F [Example 108, 3-(5-chloro-2,4-difluorophenyl)-6-fluoro-1-benzothiophene-2-carboxylic acid]
IC50: 620 nM

O=C(O)c1sc2cc(F)ccc2c1-c1cc(F)c(F)c(F)c1F [Example 109, 6-fluoro-3-(2,3,4,5-tetrafluorophenyl)-1-benzothiophene-2-carboxylic acid]
IC50: 600 nM

CCc1ncc(F)c(-c2c(C(=O)O)sc3cc(F)ccc23)c1F [Example 110, 3-(2-ethyl-3,5-difluoropyridin-4-yl)-6-fluoro-1-benzothiophene-2-carboxylic acid]
IC50: 550 nM

O=C(O)c1sc2cc(F)ccc2c1-c1cc(F)cc(F)c1Cl [Example 111, ammonium 3-(2-chloro-3,5-difluorophenyl)-6-fluoro-1-benzothiophene-2-carboxylate]
IC50: > 60000 nM
